Assay results from patent US6268391A, “Benzylidene-1,3-dihydro-indol-2-one derivatives a receptor tyrosine kinase inhibitors, particularly of Raf kinases” (Glaxo Wellcome Inc., priority 1997, dated 2001).
pIC50: −log10 of the molar value. Like-named read-outs stand apart in the source and are kept apart here.

How the values were obtained:
[1] = system: MIA PACA (human pancreatic carcinoma cell line); assay: Cell Based Efficacy (MTT Assay), MIA PACA; details: MIA PaCa-2, 72 hours with compound, 50% inhibitory concentration
Experimental: (§1) The potency of compounds of the invention are tested for their ability to inhibit cell proliferation and cell viability. The metabolic conversion of 3-(4,5-dimethylthiazol-2-yl)-2,5-diphenyltetrazolium bromide (MTT, Sigma #M2128) to a reduced form is a commonly used measure of cellular viability. Following is the procedure:
(§2) Cells are maintained in 75 cm^2 tissue culture flasks until ready for use. The cells are grown and plated for the assay in Dulbecco's modified Eagle's media containing 10% fetal bovine serum. For example, the following cell lines can be used: a) human foreskin fibroblasts (HFF), b) HT29 (human colon carcinoma cell line), c) MDA-MB-468 (human breast carcinoma cell line), d) RKO (human colon adenocarcinoma cell line), e) SW620 (human colon carcinoma cell line), f) A549 (human lung carcinoma cell line), and g) MIA PACA (human pancreatic carcinoma cell line). Cells are maintained at 37° C. in 10% CO2, 90% humidified air. Cells are plated in 96-well tissue culture plates at the densities listed below. 100 μL of cell suspension is added to each well of the 96-well plate except the top row of the plate which contains no cells and serves as a reference for the spectrophotometer.
MIA PACA 3000 cells/well
(§3) Cells are incubated overnight in Dulbecco's modified Eagle's media containing 10% fetal bovine serum at 37° C. in 10% CO2, 90% humidified air prior to dosing. Cells are dosed in 10 sequential 3-fold dilutions starting at 30 uM depending upon the solubility of the compound. Compounds with solubilities of less than 30 uM are dosed at the highest soluble concentration. Stock solutions of compounds are made in 100% dimethyl sulfoxide (DMSO). Stock solutions are diluted in Dulbecco's modified Eagle's media containing 100 ug/mL gentamicin and 0.3 to 0.6% DMSO at the twice the highest concentration to be placed on the cells. If compounds have been dissolved in DMSO the final concentration of DMSO on the cells is kept below 0.3%. 3-fold serial dilutions are performed on each compound to prepare 10 concentrations of the compound for dosing. 100 μL of diluted compound is added to the 100 μL of media currently on the dish. For each concentration of compound, 2-4 replicate wells are prepared.
(§4) Cells are returned to incubator and allowed to proliferate in the presence of compound for 72 hours before addition of MTT. MTT is prepared in phosphate buffered saline (Irvine Scientific #9240) at a concentration of 2mg/mL. 50 μL per well of MTT solution is added to the 200 μL of media to yield a final concentration of 0.4 mg/mL and plates are returned to the incubator for 4 hours. After 4 hours incubation the media, compound and MTT mixture is aspirated from the plates and 100 μL of 100% DMSO is added to each well in addition to 25 μL of Sorenson's Buffer (0.1M glycine, 0.1M NaCl, pH 10.5). Quantitation of metabolic reduction of MTT in each plate is performed by reading optical density at 570 nm wavelength on a Molecular Devices UVmax microplate reader. Growth inhibition curves and 50% inhibitory concentrations are determined using Microsoft Excel.
(§5) Table 4 illustrates the inhibitory activity of compounds of the present invention against a representative kinase (raf) and the cytotoxicity of compounds of the present invention against a broad range of human tumor cell lines.

[2] = target: T1, Human cRaf1 (Homo sapiens, UniProt P04049); assay: Raf kinase assay (cRaf1 assay / Raf/MEK cascade assay); format: biochemical
T1 construct: poly-histidine (C); made in house

[3] = system: SW620 (human colon carcinoma cell line); assay: Cell Based Efficacy (MTT Assay), SW620; details: SW-620, 72 hours with compound, 50% inhibitory concentration
Experimental: as §1
as §2, with “spectrophotometer. […]” for “spectrophotometer.”
as §3, §4, §5

[4] = system: MDA-MB-468 (human breast carcinoma cell line); assay: Cell Based Efficacy (MTT Assay), MDA-MB-468; details: 72 hours with compound, 50% inhibitory concentration
Experimental: as §1
as §2, with “spectrophotometer. […]” for “spectrophotometer.”
as §3, §4, §5

[5] = system: HT29 (human colon carcinoma cell line); assay: Cell Based Efficacy (MTT Assay), HT29; details: HT-29, 72 hours with compound, 50% inhibitory concentration
Experimental: as §1, §2, §3, §4, §5

[6] = system: PC-3 (prostate); assay: Cell Based Efficacy (MTT Assay), PC-3; details: Homo sapiens; 72 hours with compound; 50% inhibitory concentration
Experimental: as §1, §2, §3, §4, §5

[7] = Table 3, read-out: Raf Kinase activity

T1 sequence (P04049 whole entry): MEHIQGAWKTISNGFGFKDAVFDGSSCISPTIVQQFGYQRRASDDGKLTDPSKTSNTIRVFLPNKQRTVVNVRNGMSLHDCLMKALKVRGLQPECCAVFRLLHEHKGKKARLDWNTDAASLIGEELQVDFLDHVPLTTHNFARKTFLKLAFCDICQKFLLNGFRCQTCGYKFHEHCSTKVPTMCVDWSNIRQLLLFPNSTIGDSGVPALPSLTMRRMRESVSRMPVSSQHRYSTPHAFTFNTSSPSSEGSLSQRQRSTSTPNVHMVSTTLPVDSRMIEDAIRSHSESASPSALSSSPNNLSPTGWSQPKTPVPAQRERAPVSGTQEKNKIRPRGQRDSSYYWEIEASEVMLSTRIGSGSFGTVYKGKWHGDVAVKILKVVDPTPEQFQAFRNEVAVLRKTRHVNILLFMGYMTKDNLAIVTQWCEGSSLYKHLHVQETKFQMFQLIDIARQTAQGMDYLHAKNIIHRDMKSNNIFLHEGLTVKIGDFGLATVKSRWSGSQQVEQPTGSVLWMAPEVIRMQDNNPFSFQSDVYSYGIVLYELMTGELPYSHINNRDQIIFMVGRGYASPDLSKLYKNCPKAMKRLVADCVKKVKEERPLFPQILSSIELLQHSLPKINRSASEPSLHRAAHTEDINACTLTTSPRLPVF

`N#Cc1ccc2c(c1)C(=Cc1cc(Br)c(O)c(Br)c1)C(=O)N2` [Example 1, 3-(3,5-Dibromo-4-hydroxy-benzylidine)-2-oxo-2,3-dihydro-1H-indole-5-carbonitrile] showed a pIC50 [1] of 4.30 to 5.30, a pIC50 [2, 7] greater than 6.00 and a pIC50 ([2]; Table 4, read-out: Raf) greater than 6.30. The pIC50 [3] was 4.30 to 5.30, the pIC50 [4] was 4.30 to 5.30 and the pIC50 [5] was 4.30 to 5.30. For the same molecule, the pIC50 [6] was 4.30 to 5.30.
Work on `CCOc1cc(C=C2C(=O)Nc3ccc(C(=O)c4ccccc4)cc32)cc(Br)c1O` [Example 8, 5-Benzoyl-3-(3-bromo-5-ethoxy-4-hydroxy-benzylidene)-1,3-dihydro-indol-2-one] yielded a pIC50 [1] of 4.30 to 5.30, a pIC50 [2, 7] greater than 6.00 and a pIC50 ([2]; Table 4, read-out: Raf) greater than 6.30. For the same molecule, the pIC50 [3] was 4.30 to 5.30, the pIC50 [4] was 4.30 to 5.30 and the pIC50 [5] was 4.30 to 5.30. The pIC50 [6] was 4.30 to 5.30.
`NCc1ccc2c(c1)C(=Cc1cc(Br)c(O)c(Br)c1)C(=O)N2` [Example 25, 5-Aminomethyl-3-(3,5-dibromo-4-hydroxy-benzylidene)-1,3-dihydro-indol-2-one] was tested, and the pIC50 [1] was 4.30 to 5.30, the pIC50 [2, 7] was 5.00 to 6.00 and the pIC50 ([2]; Table 4, read-out: Raf) was 5.30 to 6.30. For the same molecule, the pIC50 [3] was 4.30 to 5.30, the pIC50 [4] was 4.30 to 5.30 and the pIC50 [5] was 4.30 to 5.30. The pIC50 [6] was 4.30 to 5.30.
`O=C1Nc2ccc3ncccc3c2C1=Cc1cc(Br)c(O)c(Br)c1` [Example 119, 1-(3,5-Dibromo-4-hydroxy-benzylidene)-1,3-dihydro-pyrrolo[3,2-f]quinolin-2-one] was tested, and the pIC50 [1] was 5.30 to 6.30, the pIC50 [2, 7] was greater than 6.00 and the pIC50 ([2]; Table 4, read-out: Raf) was greater than 6.30. It also gave a pIC50 [3] of 5.30 to 6.30, a pIC50 [4] of 5.30 to 6.30 and a pIC50 [5] of 5.30 to 6.30. For the same molecule, the pIC50 [6] was 5.30 to 6.30.
In the case of `O=C1Nc2ccc3ncsc3c2C1=Cc1cc(Br)c(O)c(Br)c1` [Example 121, 8-(3,5-Dibromo-4-hydroxy-benzylidine)-6,8-dihydro-1-thia-3,6-diaza-as-indacen-7-one], the pIC50 [1] was 4.30 to 5.30, the pIC50 [2, 7] was greater than 6.00 and the pIC50 ([2]; Table 4, read-out: Raf) was greater than 6.30. It also gave a pIC50 [3] of 5.30 to 6.30, a pIC50 [4] of 5.30 to 6.30 and a pIC50 [5] of 5.30 to 6.30.
`Cc1nc(-c2ccc3c(c2)C(=Cc2cc([N+](=O)[O-])c(O)c([N+](=O)[O-])c2)C(=O)N3)cs1` [Example 130, 3-(3,5-Dinitro-4-hydroxy-benzylidene)-5-(2-methyl-thiazol-4-yl)-1,3-dihydro-indol-2-one] showed a pIC50 [1] of 4.30 to 5.30, a pIC50 [2, 7] greater than 6.00 and a pIC50 ([2]; Table 4, read-out: Raf) greater than 6.30. It also gave a pIC50 [3] of 4.30 to 5.30, a pIC50 [4] of 4.30 to 5.30 and a pIC50 [5] of less than 4.30. The pIC50 [6] was less than 4.30.
`O=C1Nc2cc(Br)ccc2C1=Cc1cc(Cl)c(O)c(Cl)c1` [Example 133, 6-Bromo-3-(3,5-dichloro-4-hydroxy-benzylidene)-1,3-dihydro-indol-2-one] gave a pIC50 [1] of 4.30 to 5.30, a pIC50 [2, 7] greater than 6.00 and a pIC50 ([2]; Table 4, read-out: Raf) greater than 6.30. The pIC50 [3] was 4.30 to 5.30, the pIC50 [4] was 5.30 to 6.30 and the pIC50 [5] was 5.30 to 6.30. For the same molecule, the pIC50 [6] was 4.30 to 5.30.
In the case of `Cn1nnc(-c2ccc3c(c2)C(=Cc2cc(Br)c(O)c(Br)c2)C(=O)N3)n1` [Example 143, 3-(3,5-Dibromo-4-hydroxy-benzylidene)-5-(2-methyl-2H-tetrazol-5-yl)-1,3-dihydro-indol-2-one], the pIC50 [2, 7] was greater than 6.00, the pIC50 ([2]; Table 4, read-out: Raf) was greater than 6.30 and the pIC50 [3] was 5.30 to 6.30. For the same molecule, the pIC50 [4] was 5.30 to 6.30 and the pIC50 [5] was 5.30 to 6.30.
In the case of `CN(C)CCNC(=O)c1ccc2c(c1)C(=Cc1cc(Br)c(O)c(Br)c1)C(=O)N2` [Example 168, 3-[(3,5-Dibromo-4-hydroxyphenyl)methylidene]-N-(2-(dimethylamino)ethyl]-2-oxo-5-indolinecarboxamide], the pIC50 [2, 7] was greater than 6.00.
With `O=C1Nc2ccc(-c3cc(C(F)(F)F)cc(C(F)(F)F)c3)cc2C1=Cc1cc(Br)c(O)c(Br)c1` [Example 169, 5-[3,5-bis(Trifluoromethyl)phenyl]-3-[(3,5-dibromo-4-hydroxyphenyl)methylidene]-1,3-dihydro-2H-indol-2-one] the pIC50 [2, 7] was greater than 6.00.
`O=C1Nc2ccc(-c3ccc(Cl)cc3Cl)cc2C1=Cc1cc(Br)c(O)c(Br)c1` [Example 171, 3-[(3,5-Dibromo-4-hydroxyphenyl)methylidene]-5-(2,4-dichlorophenyl)-1,3-dihydro-2H-indol-2-one] showed a pIC50 [2, 7] greater than 6.00.
`O=C1Nc2ccc(C(=O)NCCO)cc2C1=Cc1cc(Br)c(O)c(Br)c1` [Example 172, 3-[(3,5-Dibromo-4-hydroxyphenyl)methylidene]-N-(2-hydroxyethyl)-2-oxo-5-indolinecarboxamide] gave a pIC50 [2, 7] greater than 6.00.
In the case of `CN(C)c1nc(-c2ccc3c(c2)C(=Cc2cc(Br)c(O)c(Br)c2)C(=O)N3)cs1` [Example 173, 3-[(3,5-Dibromo-4-hydroxyphenyl)methylidene]-5-[2-(dimethylamino)-1,3-thiazol-4-yl]-1,3-dihydro-2H-indol-2-one], the pIC50 [2, 7] was greater than 6.00.
With `CS(=O)(=O)c1ccc2c(c1)C(=Cc1cc(Br)c(O)c(Br)c1)C(=O)N2` [Example 174, 3-[(3,5-Dibromo-4-hydroxyphenyl)methylidene]-5-(methylsulfonyl)-1,3-dihydro-2H-indol-2-one] the pIC50 [2, 7] was greater than 6.00.
In the case of `NS(=O)(=O)c1ccc(-c2ccc3c(c2)C(=Cc2cc(Br)c(O)c(Br)c2)C(=O)N3)cc1` [Example 175, 4-3-[(3,5-Dibromo-4-hydroxyphenyl)methylidene]-2-oxo 2,3-dihydro-1H-indol-5-ylbenzenesulfonamide], the pIC50 [2, 7] was greater than 6.00.
Work on `C=Cc1ccc2c(c1)NC(=O)C2=Cc1cc(Br)c(O)c(Br)c1` [Example 176, 3-[(3,5-Dibromo-4-hydroxyphenyl)methylidene]-6-vinyl-1,3-dihydro-2H-indol-2-one] yielded a pIC50 [2, 7] greater than 6.00.
`COC(=O)c1sccc1-c1ccc2c(c1)C(=Cc1cc(Br)c(O)c(Br)c1)C(=O)N2` [Example 177, Methyl 3-3-[(3,5 dibromo-4-hydroxyphenyl)methylidene]-2-oxo-2,3-dihydro-1H-indol-5-yl-2-thiophenecarboxylate] showed a pIC50 [2, 7] greater than 6.00.
`N#Cc1ccccc1-c1ccc2c(c1)C(=Cc1cc(Br)c(O)c(Br)c1)C(=O)N2` [Example 178, 2-3-[(3,5 Dibromo-4-hydroxyphenyl)methylidene]-2-oxo-2,3-dihydro-1H-indol-5-ylbenzonitrile] showed a pIC50 [2, 7] greater than 6.00.
With `N#Cc1ccc2c(c1)NC(=O)C2=Cc1cc(Br)c(O)c(Br)c1` [Example 179, 3-[(3,5-Dibromo-4-hydroxyphenyl)methylidene]-2-oxo-6-indolinecarbonitrile] the pIC50 [2, 7] was greater than 6.00.
In the case of `CN(C)CCCNc1nc(-c2ccc3c(c2)C(=Cc2cc(Br)c(O)c(Br)c2)C(=O)N3)cs1` [Example 180, 3-[(3,5-Dibromo-4-hydroxyphenyl)methylidene]-5-(2-[3-(dimethylamino)propyl]amino-1,3-thiazol-4-yl)-1,3-dihydro-2H-indol-2-one], the pIC50 [2, 7] was greater than 6.00.
In the case of `O=C1Nc2ccc(C(=O)NCc3ccncc3)cc2C1=Cc1cc(Br)c(O)c(Br)c1` [Example 181, 3-[(3,5-dibromo-4-hydroxyphenyl)methylidene]-2-oxo-N-(4-pyridinylmethyl)-1,2-dihydro-3H-indole-5-carboxamide], the pIC50 [2, 7] was greater than 6.00.
